In patent US20090253706A1, “Methods and Compositions for the Treatment of Rheumatoid Arthritis and Other Inflammatory Diseases” (priority 2008, published 2009):

Tests used:
Format in all cases: in vivo
[1] = test system: anti-glucose-6-phosphate isomerase (GPI) Ig; experiment: Serum anti-GPI Ig titer in treated K/BxN mice; conditions: FIG. 2A; IgM and IgG isotypes, vs carrier alone
From the text: (§1) FIG. 2A is a graph of the titer of serum anti-glucose-6-phosphate isomerase (GPI) IgM and IgG isotypes from K/BxN mice treated with 1-methyl-tryptophan or carrier alone. FIG. 2B is a graph of the number of anti-GPI secreting cells per 10^5 cells present in the spleen, draining lymph nodes (dLN), and non-draining lymph nodes (non-dLN) of K/BxN mice treated with 1-methyl-tryptophan or carrier alone.
(§2) K/BxN mice produce arthritogenic Abs directed against GPI, which develop at high titers because of the preferential help that B cells expressing GPI-specific immunoglobulins receive from GPI-reactive T cells displaying the transgene-encoded TCR.

[2] = test system: anti-GPI antibody secreting cells; experiment: Anti-GPI antibody secreting cells in spleen and lymph nodes of treated K/BxN mice; conditions: FIG. 2B; spleen, draining lymph nodes (dLN), non-draining lymph nodes (non-dLN), vs carrier alone
From the text: as §1, §2

[3] = test system: K/BxN mice; experiment: Arthritis prevention in K/BxN mice, treatment from weaning, rear ankle thickness
From the text: K/BxN TCR transgenic mice express a TCR reactive to a self-peptide derived from the glucose-6-phosphate isomerase (GPI), presented by the MHC class II molecule A^g7 (Korganow et al. (1999) Immunity, 10:451-461; Kouskoff et al. (1996) Cell, 87:811-822; Matsumoto et al. (1999) Science, 286:1732-1735). K/BxN mice spontaneously develop a very aggressive form of arthritis at 3 to 4 weeks of age. […] The arthritis experienced by K/BxN mice is joint specific and allows for the scoring of the arthritis by caliper measurement of ankle thickness (Korganow et al. (1999) Immunity, 10:451-461; Ji et al. (2001) J. Exp. Med., 194:321-330).
Starting at weaning (21 days of age) K/BxN mice were administered 400 mg/kg of 1-methyl-D-tryptophan, 400 mg/kg of 1-methyl-L-tryptophan, or carrier alone b.i.d. (twice daily) by p.o. (oral) gavage.
Mice were given 400 mg/kg/dose (100 μl total volume) of D/L-1MT or D-1MT diluted in METHOCEL™/Tween® (0.5% Tween 80, 0.5% methylcellulose (v/v in water) twice daily by oral gavage (p.o.) using a curved feeding needle as described (Muller et al. (2005) Nat. Med., 11:312-319). 1MT was administered on a b.i.d. schedule, once in the morning and once in the evening. Methotrexate (MTX) was diluted in 0.5% carboxymethyl cellulose and administered by oral gavage at a range of doses 1-25 mg/kg/dose (0.1 cc/20 g mouse) using a curved feeding needle. The mice were given one dose per week as described (Asanuma et al. (2002) Eur. J. Pharmacol., 435:253-258). Control mice were given an equal volume of carrier alone (METHOCEL™/Tween®).
For the arthritis prevention experiments, MTX and/or 1MT treatment was started on the day of weaning (age 21 days). For the treatment of established arthritis, MTX and/or 1MT was administered after the mice had measurable arthritis.
The two rear ankles of MTX, 1MT, MTX+1 MT, or carrier-treated K/BxN mice were measured starting at weaning (3 wk of age) as described (Mandik-Nayak et al. (2002) Proc. Natl. Acad. Sci., 99:14368-14373). Measurement of ankle thickness was made above the footpad axially across the ankle joint using a Fowler Metric Pocket Thickness Gauge.

[4] = Example 1, FIG. 1, 400 mg/kg b.i.d. p.o. from 21 days of age, vs carrier alone
[5] = Example 2, FIG. 3, 400 mg/kg p.o. b.i.d. from 21 days, n=5
[6] = FIG. 4, MTX 1, 10 or 25 mg/kg weekly p.o. from 3 weeks of age, increasing amounts

Row | Structure (SMILES) | degree of arthritis (mean ankle thickness) [3, 4] | onset of arthritis [3, 4] | degree of arthritis (mean ankle thickness) [3, 5] | onset of arthritis [3, 5] | also measured
1 | Cn1cc(C[C@H](N)C(=O)O)c2ccccc21 (racemic) [1-MT, 1-methyl-tryptophan] |  |  |  |  | levels of serum anti-GPI Ig [1]: reduced levels of serum anti-GPI Ig; numbers of anti-GPI antibody secreting cells [2]: reduced numbers of anti-GPI antibody secreting cells
2 | Cn1cc(C[C@@H](N)C(=O)O)c2ccccc21 [1-methyl-D-tryptophan] | greatly reduced the degree of arthritis | delayed the onset of arthritis | reduced the degree of arthritis | delayed the onset of arthritis | arthritis development ([3]; FIG. 3 legend, 400 mg/kg p.o. b.i.d. from 21 days): inhibits arthritis development
3 | Cn1cc(CC(N)C(=O)O)c2ccccc21 [1-methyl-D/L-tryptophan] |  |  | reduced the degree of arthritis | delayed the onset of arthritis | 
4 | Cn1cc(C[C@H](N)C(=O)O)c2ccccc21 [1-methyl-L-tryptophan] | greatly reduced the degree of arthritis | delayed the onset of arthritis |  |  | 
5 | CN(Cc1cnc2nc(N)nc(N)c2n1)c1ccc(C(=O)N[C@@H](CCC(=O)O)C(=O)O)cc1 [MTX, methotrexate] |  |  |  |  | degree of arthritis [3, 6]: reduced the degree of arthritis; onset of arthritis [3, 6]: inhibited the onset of arthritis; arthritis development ([3]; FIG. 4 legend, MTX 1, 10 or 25 mg/kg weekly p.o. from 3 weeks of age): dose-dependent inhibition of arthritis development
